Measurements from US20220395464A1, “ORALLY ADMINISTERED SOLID DOSAGE FORM DRUG” (ASCENTAWITS PHARMACEUTICALS, LTD., priority 2019, published 2022).
Where “and” joins values, the source holds several entries; their conditions need not be identical. Identical values can stand only once.

Columns and labels:
[1] = Stability in hepatomicrosome with NADPH (LC-MS/MS); assay type: in vitro ADME, human; settings: for % Remaining: human hepatomicrosome 0.5 mg/ml, NADPH 2 mM, 37° C., Sample 1, Sample 2
Method: The compounds, hepatomicrosome and reduced coenzyme NADPH were mixed together. Besides, a final concentration of the hepatomicrosome was 0.5 mg/ml, and human, male and mixed types of the hepatomicrosome were purchased. A final concentration of the NADPH was 2 mM. Next, the preceding mixtures were incubated in buffer (100 mM KH2PO4—K2HPO4) at 37° C. for 0, 5, 15, 30, 45, and 60 minutes, respectively. At the appointed incubation time, the reaction was terminated by the addition of an internal standard solution. Finally, the samples were centrifuged and the supernatant was taken for detection by LC-MS/MS.
Through mass spectrometry analysis, a concentration of the compounds in each sample was expressed by a peak-area ratio (a ratio of the peak-area of the compound to a peak-area of the internal standard). Then, each remaining percentage of the compounds (% Remaining) at each appointed incubation time was calculated with a reference that 0 minute at each concentration of the compounds. In logarithm of the remaining percentage was fitted linearly with the appointed incubation times, and a half-life and an intrinsic clearance were calculated according to the following formulas.
The remaining percentage (% Remaining)=(a peak area ratio at a certain appointed time (PARappointed time)/a peak area ratio at 0 minute (PAR0-mm)×100 (PAR: peak area ratio)
The elimination rate constant (k)=a negative of a slope (-gradient)
In vitro clearance (CLint, in vitro) (ml/min/mg)=k/c (c: a concentration of hepatomicrosome in the incubation system)

[2] = Pharmacokinetics after single intravenous drip infusion, plasma LC-MS/MS; assay type: in vivo, Philippine macaques; settings: individual animals 101, 102, 103; for Plasma-drug concentration: AST-3424-D6 intravenous drip infusion 0.42 mg/kg
Method: AST-3424 and AST-3424-D6 (i.e. the compound of formula I) were administered to Philippine macaques by intravenous drip infusion, and blood samples were collected at different appointed times. LC-MS/MS was used to determine concentrations of the test substances in plasma of the Philippine macaques after administration, and relevant pharmacokinetic parameters were calculated.
Preparation method: 0.447 ml of AST-3424 (0.2 mg/ml) and 0.481 ml of AST-3424-D6 (0.2 mg/ml) were added into 104.272 ml of the dissolvent, respectively, and mixed for 5 minutes to obtain colorless and clarified solutions with pH 7.0.
The four male Philippine macaques were purchased from Guangxi Xiongsen Primate Development Experiment Co., Ltd. All Philippine macaques were healthy with qualified medical examination and no abnormality. Three of animals were used for the experiment, and one of them was used to prepare blank plasma.
About 0.8 ml of blood samples were collected through femoral vein and anticoagulated with heparin sodium. Appointed times of blood collection were before administration, 0.17, 0.25, 0.5, 0.75, 1, 2, and 4 hours after administration.
The blood samples were placed on ice after collection. Next, plasma samples were separated by centrifugation, and centrifugation conditions were 3500 rpm for 10 minutes at 4° C. Then, the collected plasma samples were stored at −80° C. until analysis. The plasma samples were analyzed by LC-MS/MS by an analysis department of an experimental institution. Besides, Lower limit of quantifications (LLOQ) of AST-3424 and AST-3424-D6 detection were 1 ng/ml. The accuracy of analysis results of an accompanying standard curve and a quality control samples all met the relevant requirements of biological analysis (the accuracy of the quality control samples exceeding 66.7% was between 85˜115%) in a process of the sample detection.
According to average blood concentration data of each group at each appointed time, the pharmacokinetic parameters of the compounds were respectively computed by a pharmacokinetic computing software, a non-compartmental model. In addition, the pharmacokinetic parameters were AUC0-t, AUC0-∞, MRT0-∞, Cmax, Tmax, t1/2, etc. In the case of the concentrations of the samples whose concentration being lower than a lower limit of quantification, the following schemes were used to compute the pharmacokinetic parameters. The samples sampled before reaching Cmax shall be computed as zero value, while the samples sampled after reaching Cmax shall be computed as non-quantifiable (marked as “BLQ”).
After a single intravenous infusion of the compounds AST-3424 and AST-3424-D6 was administered to the Philippine macaques, the whole blood samples of the corresponding animals were collected at the appointed times. Next, the whole blood samples were processed and biologically analyzed to obtain concentrations of the compounds in the plasma at the different appointed times. Results of the assay were listed in Table 14 below, and corresponding means of the plasma-drug concentration-time curves are shown in FIG. 3.
According to the plasma-drug concentration data of each drug group, the pharmacokinetic parameters of each compound group were computed using the non-compartmental model of the pharmacokinetic computing software. The pharmacokinetic

[3] = AST-3424-D6 single intravenous infusion, Table 15 heading 0.58 mg/kg (text: 0.42 mg/kg), plasma

## [2H]C([2H])([2H])N(C(=O)c1cccc(Oc2cc([C@H](C)OP(=O)(N3CC3)N3CC3)ccc2[N+](=O)[O-])c1)C([2H])([2H])[2H] [AST-3424-D6]
[1]; human hepatomicrosome
  Stability parameter k (elimination rate constant): 0.0349 min⁻¹
[1]; 0 minutes
  % Remaining: 101.60% and 98.40%
[1]; 5 minutes
  % Remaining: 85.07% and 87.20%
[1]; 15 minutes
  % Remaining: 62.93% and 60.00%
[1]; 30 minutes
  % Remaining: 36.80% and 34.93%
[1]; 45 minutes
  % Remaining: 21.17% and 21.07%
[1]; 60 minutes
  % Remaining: 13.52% and 12.75%
[1]; human hepatomicrosome, 0 minutes
  % Remaining, Average: 100.00%
[1]; human hepatomicrosome, 5 minutes
  % Remaining, Average: 86.13%
[1]; human hepatomicrosome, 15 minutes
  % Remaining, Average: 63.47%
[1]; human hepatomicrosome, 30 minutes
  % Remaining, Average: 35.87%
[1]; human hepatomicrosome, 45 minutes
  % Remaining, Average: 21.12%
[1]; human hepatomicrosome, 60 minutes
  % Remaining, Average: 13.13%
[1]; human hepatomicrosome, FIG. 2 and Table 13
  Hepatomicrosome stability compared with AST-3424, in words: more stable
[1]; human hepatomicrosome, at the same time period
  Remaining percentage higher than that of AST-3424: at least 10%
[1]; male, liver microsomes (hepatomicrosome), human hepatomicrosome, read-out: Stability parameter (t1/2)
  half-life: 19.9 min
[2]; 0.17 hr
  Plasma-drug concentration: 573.76 ng/mL and 478.95 ng/mL
[2]; 0.25 hr
  Plasma-drug concentration: 528.54 ng/mL and 508.71 ng/mL
[2]; 0.5 hr
  Plasma-drug concentration: 533.71 ng/mL and 487.88 ng/mL
[2]; 0.75 hr
  Plasma-drug concentration: 122.04 ng/mL and 91.24 ng/mL
[2]; 1 hr
  Plasma-drug concentration: 36.24 ng/mL and 24.30 ng/mL
[2]; 2 hr, LLOQ 1 ng/ml
  Plasma-drug concentration: BLQ
[2]; 4 hr, LLOQ 1 ng/ml
  Plasma-drug concentration: BLQ
[2]; [3]
  AUC(0−t): 327.39 ng·h/mL and 291.62 ng·h/mL
  AUC(0−∞): 295.67 ng·h/mL
  Cl: 23.6747 mL/min/kg
  Cmax: 573.76 ng/mL and 508.71 ng/mL
  T1/2: 7.2 min
  Tmax: 30 min and 10.2 min and 15 min
  Vss: 0.20706 L/kg
